Tests used:
[1] = tested on: HLA-A*0201-positive- and HER3-positive MCF-7 cells; test: Human CTL (51Cr release) assay on MCF-7 target cells; format: cell-based; conditions: effector to target ratio 25 to 1; for killing of MCF-7 cells by peptide-induced CTL: CTL induced with peptide-loaded (10 μM) human DCs, unloaded MCF-7 targets, FIGS. 2A-2B
Protocol: (§1) Immature human DCs (Dendritic cells) were loaded for 2 hours at 10 μM with peptides, washed and then co-cultured with untouched autologous T cells (isolated via magnetic bead-based separation) at a DC to T-cell ratio of 1:20 in complete RPMI media supplemented with 12.5 μg/mL pIC, (polyinosinic-polycytidylic acid, Sigma) and 1.0 μg/mL recombinant CD40L plus 1.0 μg/mL Enhancer (Alexis Biochemicals). 20 U/ml of recombinant human Interleukin-2 (IL-2) were added after 3 days and every other day thereafter. Cells were re-stimulated twice after 7 days (DC to T cell ratio of 1:10) and analyzed for cytolytic activity 10 days after the last re-stimulation.
(§2) 2×10^6 target cells were harvested, washed, counted, and labeled with 100 μCi of Na2^51CrO4 (Amersham) in 0.5 ml complete RPMI at 37° C. for 1.5 h. Exogenous loading of cells with 10 μM synthetic peptide was performed simultaneously with labeling reactions. CTLs (untouched CD8^+ T cells isolated via magnetic-bead-based techniques (Miltenyi Biotec)) were washed, counted, and diluted to the desired density in complete RPMI 1640 and plated in duplicate wells in a round-bottomed, 96-well plate. Target cells were washed three times, resuspended in complete RPMI and incubated at 37° C. and 5% CO2. After 1 h, cells were washed one more time, diluted to 10^4 cells/ml and co-incubated with CTLs at indicated effector to target ratio of 25 to 1. The plates were spun briefly at 800×g and incubated for 4-5 h at 37° C. Supernatants were harvested and counted in a gamma counter. Duplicate wells were averaged, and the percentage of specific lysis was calculated as: […]

[2] = tested on: murine CD8+ T cells stimulated with peptide-pulsed T2 cells; test: IFN-γ ELISPOT after peptide vaccination of HLA-A*0201-transgenic mice; format: in vivo; conditions: mice immunized with mixture of 100 μg of each peptide in PBS:Montanide ISA 51, 3 weekly vaccinations; CD8+ T cells stimulated with the same epitope on T2 cells; FIG. 1
Text: To further validate the identified HER-3-derived peptide epitopes (SEQ ID NO: 1 and SEQ ID NO: 3), we vaccinated HLA-A*0201-transgenic mice with these peptides. Female CB6F1-Tg(HLA-A*0201/H2-K^b) A*0201 mice were purchased from Charles River Laboratories (Raleigh, N.C.). These animals carry a transgene consisting of fragments of the human HLA-A*0201 gene and mouse H2-K^b gene which encodes a chimeric class I molecule consisting of the human HLA-A2.1 leader, α1 and α2 domains ligated to the murine α3, transmembrane and cytoplasmic H2-K^b domain Mice were maintained in a specific pathogen-free environment. All mice were used at 8 to 12 weeks of age. Animals were housed in a specific pathogen-free environment at the animal facility of the DUKE University Medical Center. All mice used in this study were cared for in accordance with the Guide for Humane care and use of Laboratory Animals published by the National Institutes of Health. All the animal experimental protocols were approved by the Duke University Medical Center Institutional Animal Care and Use Committee.
Mice were immunized with a mixture of 100 μg of each peptide emulsified in PBS:Montanide ISA 51 (1:1) (SEPPIC, France). […]
ELISPOT assays were performed without re-stimulation of cells. […] Spots of the dried plate were counted using an ImmunoScan ELISPOT reader (C.T.L., Cellular Technology Ltd.).

[3] = tested on: HLA-A*0201-positive, but HER3-negative LNCaP cells; test: Human CTL (51Cr release) assay on LNCaP target cells; format: cell-based; conditions: effector to target ratio 25 to 1, FIG. 2B
Protocol: as §1
as §2, with “After 1 h, cells were washed one more time, diluted to 10^4 cells/ml and co-incubated with CTLs at indicated effector to target ratio of 25 to 1. The plates were spun briefly at 800×g and incubated for 4-5 h at 37° C.” left out

| Sequence | killing of MCF-7 cells by peptide-induced CTL [1] | induction of epitope-specific CD8+ T cells producing IFN-γ (ELISPOT) [2] | killing of epitope-loaded MCF-7 cells by peptide-induced CTL ([1]; target cells loaded with 10 μM HER3943-954, FIG. 2B) | killing of epitope-loaded LNCaP cells by peptide-specific CTL ([3]; LNCaP targets loaded with 10 μM HER3943-954) | killing of LNCaP cells by peptide-specific CTL ([3]; unloaded HER3-negative LNCaP targets) |
| --- | --- | --- | --- | --- | --- |
| LAEVPDLLE (Synthetic HER3 Antigen 1) [HER3917-925] | failed to induce HERS-specific CTLs | failed to induce CD8^+ T cells that produced IFN-γ | – | – | – |
| VMVKCWMIDENI (Synthetic HER3 Antigen 3) [HER3943-954] | killed MCF-7 cells efficiently | induced epitope-specific CD8^+ T cells | cytolytic activity could further be enhanced | Killing | did not kill |

— patent US10487143B2, “Vaccines against HER3 antigens and methods of using the same” (Duke University, priority 2016, dated 2019)
